Like-named read-outs stand apart in the source and are kept apart here.
Assays:
human Bub1 = human Bub1 (Homo sapiens (Human), UniProt O43683); test: Bub1 high ATP kinase assay (TR-FRET); format: biochemical; settings: read-out: Bub1 high ATP (2 mM) IC50; 2 mM ATP
From the text: Bub1-inhibitory activity of compounds of the present invention at a high ATP concentration was quantified employing the Bub1 TR-FRET high ATP kinase assay as described in the following paragraphs.
N-terminally His6-tagged recombinant catalytic domain of human Bub1 (amino acids 704-1085), expressed in insect cells (Hi5) and purified by Ni-NTA affinity chromatography and subsequent size exclusion chromatography, was used as enzyme.

Ba/F3-EGFR-insSVD = test: Ba/F3 cell survival assay, EGFR-insSVD; format: cell-based
Outline: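 Ba/F3 cells stably expressing WT EGFR or EGFR-insSVD via retrovirus, grown without IL-3 on 10 ng/mL EGF, plated at 4000 cells/well. Compound exposure 48 h at 37 °C; viability read by CellTiter-Glo luminescence.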

Ba/F3-EGFR-WT = test: Ba/F3 cell survival assay, WT EGFR; format: cell-based
[1] = target: mutEGFR (D770_N771insSVD) (Homo sapiens (Human), UniProt P00533, INS770SVD); test: biochemical; settings: mutEGFR (D770_N771 insSVD) at 2 mM ATP IC50, 2 mM ATP
[2] = read-out: BA/F3 (insSVD) IC50, cell viability, Cell Titer-Glo, 48 h, with 10 ng/mL EGF, without IL-3
[3] = Mus musculus, BaF3, 48 h, read-out: BA/F3 (wild type) IC50, cell viability, Cell Titer-Glo, 48 h, with 10 ng/mL EGF, without IL-3
[4] = Mus musculus, BaF3, 48 h, read-out: BA/F3 (insSVD) IC50, cell viability, Cell Titer-Glo, 48 h, with 10 ng/mL EGF, without IL-3

Chain of mutEGFR (D770_N771insSVD) (P00533 other isoform, or with tags, fused parts or gaps ins SVD behind 770): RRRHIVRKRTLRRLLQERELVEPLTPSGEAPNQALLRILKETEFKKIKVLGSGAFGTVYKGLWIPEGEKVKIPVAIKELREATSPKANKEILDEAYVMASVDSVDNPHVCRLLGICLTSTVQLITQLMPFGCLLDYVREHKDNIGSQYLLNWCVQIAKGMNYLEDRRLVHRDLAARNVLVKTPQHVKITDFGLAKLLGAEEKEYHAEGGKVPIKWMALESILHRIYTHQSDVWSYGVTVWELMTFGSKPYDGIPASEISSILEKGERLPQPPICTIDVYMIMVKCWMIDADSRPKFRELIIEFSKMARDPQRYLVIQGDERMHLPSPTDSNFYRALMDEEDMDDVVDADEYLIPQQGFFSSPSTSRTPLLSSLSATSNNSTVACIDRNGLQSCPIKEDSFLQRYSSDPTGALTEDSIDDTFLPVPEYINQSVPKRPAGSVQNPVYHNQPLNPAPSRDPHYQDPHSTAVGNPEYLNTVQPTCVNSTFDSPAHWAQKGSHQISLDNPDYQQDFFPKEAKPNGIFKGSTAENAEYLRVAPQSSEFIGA
Chain of human Bub1 (O43683 704-1085): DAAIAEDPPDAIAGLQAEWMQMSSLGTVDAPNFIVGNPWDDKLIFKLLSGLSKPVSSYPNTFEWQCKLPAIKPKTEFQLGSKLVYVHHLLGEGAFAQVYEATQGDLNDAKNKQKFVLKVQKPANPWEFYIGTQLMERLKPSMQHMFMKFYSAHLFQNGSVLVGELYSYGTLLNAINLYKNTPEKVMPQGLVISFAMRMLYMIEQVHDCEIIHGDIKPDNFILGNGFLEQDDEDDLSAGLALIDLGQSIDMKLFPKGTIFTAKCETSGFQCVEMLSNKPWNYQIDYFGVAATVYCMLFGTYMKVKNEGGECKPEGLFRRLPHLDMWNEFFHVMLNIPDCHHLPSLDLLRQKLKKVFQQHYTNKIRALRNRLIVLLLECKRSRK

| Compound | IC50 (human Bub1) [nM] | IC50 (Ba/F3-EGFR-insSVD; [2]) [nM] | IC50 (Ba/F3-EGFR-WT; [3]) [nM] | IC50 [1] [nM] | IC50 (Ba/F3-EGFR-insSVD; [4]) [nM] | IC50 (Ba/F3-EGFR-WT; read-out: BA/F3 (wild type) IC50, cell viability, Cell Titer-Glo, 48 h, with 10 ng/mL EGF, without IL-3) [nM] |
| --- | --- | --- | --- | --- | --- | --- |
| Cc1c(F)cccc1Nc1c(-c2ccncc2OCC2(C)CCO2)[nH]c2c1C(=O)NCC2 (single isomer, unassigned; (-)) [Example 84, (−)-3-(3-fluoro-2-methylanilino)-2-(3-{[2-methyloxetan-2-yl]methoxy}pyridin-4-yl)-1,5,6,7-tetrahydro-4H-pyrrolo[3,2-c]pyridin-4-one] | 14900 | 306 | 1290 | 0.156 |  |  |
| Cc1c(Cl)cccc1Nc1c(-c2ccncc2OC[C@]2(C)CCO2)[nH]c2c1C(=O)NCC2 (single isomer, unassigned) [Example 82, (+)-3-(3-chloro-2-methylanilino)-2-(3-{[2-methyloxetan-2-yl]methoxy}pyridin-4-yl)-1,5,6,7-tetrahydro-4H-pyrrolo[3,2-c]pyridin-4-one] | 5980 |  | 673 | 0.134 | 34.8 |  |
| Cc1cccc(Nc2c(-c3ccncc3OCC3(C)CCO3)[nH]c3c2C(=O)NCC3)c1Cl (racemic) [Example 55, 3-(2-chloro-3-methylanilino)-2-{3-[(2-methyloxetan-2-yl)methoxy]pyridin-4-yl}-1,5,6,7-tetrahydro-4H-pyrrolo[3,2-c]pyridin-4-one] | 15400 |  | 593 | 0.138 | 67.3 |  |
| CCC1(COc2cnccc2-c2[nH]c3c(c2Nc2cccc(F)c2OC)C(=O)NCC3)COC1 [Example 88, 2-{3-[(3-ethyloxetan-3-yl)methoxy]pyridin-4-yl}-3-(3-fluoro-2-methoxyanilino)-1,5,6,7-tetrahydro-4H-pyrrolo[3,2-c]pyridin-4-one] | 7490 |  | 1130 | 0.0873 | 66.8 |  |
| COc1c(Cl)cc(F)cc1Nc1c(-c2ccncc2OCC2(C)CCO2)[nH]c2c1C(=O)NCC2 (racemic) [Example 68, 3-(3-chloro-5-fluoro-2-methoxyanilino)-2-(3-{[2-methyloxetan-2-yl]methoxy}pyridin-4-yl)-1,5,6,7-tetrahydro-4H-pyrrolo[3,2-c]pyridin-4-one] | > 20000 |  | 1260 | 0.215 | 103 |  |
| CCC1(COc2cnccc2-c2[nH]c3c(c2Nc2cccc(Cl)c2C)C(=O)NCC3)COC1 [Example 23, 3-(3-chloro-2-methylanilino)-2-{3-[(3-ethyloxetan-3-yl)methoxy]pyridin-4-yl}-1,5,6,7-tetrahydro-4H-pyrrolo[3,2-c]pyridin-4-one] | > 5710 |  | 3380 | 0.96 | 190 |  |
| Cc1c(F)cccc1Nc1c(-c2ccncc2OCC2(C)CCO2)[nH]c2c1C(=O)NCC2 (single isomer, unassigned; (+)) [Example 85, (+)-3-(3-fluoro-2-methylanilino)-2-(3-{[2-methyloxetan-2-yl]methoxy}pyridin-4-yl)-1,5,6,7-tetrahydro-4H-pyrrolo[3,2-c]pyridin-4-one] | 15800 | 43.7 |  | 0.107 |  | 1260 |
| O=C1NCCc2[nH]c(-c3ccncc3OCC3COC3)c(Nc3cccc(F)c3Cl)c21 [Example 16, 3-(2-chloro-3-fluoroanilino)-2-{3-[(oxetan-3-yl)methoxy]pyridin-4-yl}-1,5,6,7-tetrahydro-4H-pyrrolo[3,2-c]pyridin-4-one] | 13900 |  | 1140 | 0.0988 | 193 |  |
| COc1c(Cl)cccc1Nc1c(-c2ccncc2OC[C@@H]2CCN2C)[nH]c2c1C(=O)NCC2 [Example 27, 3-(3-chloro-2-methoxyanilino)-2-(3-{[(2S)-1-methylazetidin-2-yl]methoxy}pyridin-4-yl)-1,5,6,7-tetrahydro-4H-pyrrolo[3,2-c]pyridin-4-one] |  |  | 937 | 0.445 | 36.5 |  |
| COc1c(F)cccc1Nc1c(-c2ccncc2OC[C@H]2CCN2C)[nH]c2c1C(=O)NCC2 [Example 79, 3-(3-fluoro-2-methoxyanilino)-2-(3-{[(2R)-1-methylazetidin-2-yl]methoxy}pyridin-4-yl)-1,5,6,7-tetrahydro-4H-pyrrolo[3,2-c]pyridin-4-one] |  |  | 712 | 0.718 | 113 |  |
| COc1c(Cl)cccc1Nc1c(-c2ccncc2OC[C@H]2CCN2CC(F)(F)F)[nH]c2c1C(=O)NCC2 [Example 30, 3-(3-chloro-2-methoxyanilino)-2-(3-{[(2R)-1-(2,2,2-trifluoroethyl)azetidin-2-yl]methoxy}pyridin-4-yl)-1,5,6,7-tetrahydro-4H-pyrrolo[3,2-c]pyridin-4-one] |  |  | 402 | 0.346 | 10.4 |  |
| COc1c(Cl)cccc1Nc1c(-c2ccncc2OC[C@@H]2CCN2CC(F)(F)F)[nH]c2c1C(=O)NCC2 [Example 29, 3-(3-chloro-2-methoxyanilino)-2-(3-{[(2S)-1-(2,2,2-trifluoroethyl)azetidin-2-yl]methoxy}pyridin-4-yl)-1,5,6,7-tetrahydro-4H-pyrrolo[3,2-c]pyridin-4-one] |  |  | 1040 | 0.304 | 60.8 |  |
| CCN1CC[C@H]1COc1cnccc1-c1[nH]c2c(c1Nc1cccc(Cl)c1OC)C(=O)NCC2 [Example 28, 3-(3-chloro-2-methoxyanilino)-2-(3-{[(2S)-1-ethylazetidin-2-yl]methoxy}pyridin-4-yl)-1,5,6,7-tetrahydro-4H-pyrrolo[3,2-c]pyridin-4-one] |  |  | 1780 | 1.06 | 181 |  |
| COc1c(Cl)cccc1Nc1c(-c2ccncc2OCCC2CCO2)[nH]c2c1C(=O)NCC2 (racemic) [Example 24, 3-(3-chloro-2-methoxyanilino)-2-{3-[2-(oxetan-2-yl)ethoxy]pyridin-4-yl}-1,5,6,7-tetrahydro-4H-pyrrolo[3,2-c]pyridin-4-one] | 2700 |  | 636 |  | 17.5 |  |
| COc1c(F)cccc1Nc1c(-c2ccncc2OCC2COC2)[nH]c2c1C(=O)NCC2 [Example 18, 3-(3-fluoro-2-methoxyanilino)-2-{3-[(oxetan-3-yl)methoxy]pyridin-4-yl}-1,5,6,7-tetrahydro-4H-pyrrolo[3,2-c]pyridin-4-one] | 12100 |  | 819 |  | 80.1 |  |
| CC1(COc2cnccc2-c2[nH]c3c(c2Nc2cccc(Cl)c2OC(F)F)C(=O)NCC3)CCO1 (racemic) [Example 74, 3-[3-chloro-2-(difluoromethoxy)anilino]-2-(3-{[2-methyloxetan-2-yl]methoxy}pyridin-4-yl)-1,5,6,7-tetrahydro-4H-pyrrolo[3,2-c]pyridin-4-one] | > 20000 |  | 1250 |  | 134 |  |
| COc1c(Nc2c(-c3ccncc3OCC3CCO3)[nH]c3c2C(=O)NCC3)ccc(F)c1Cl (single isomer, unassigned; (-)) [Example 14, (−)-3-(3-chloro-4-fluoro-2-methoxyanilino)-2-{3-[(oxetan-2-yl)methoxy]pyridin-4-yl}-1,5,6,7-tetrahydro-4H-pyrrolo[3,2-c]pyridin-4-one] | 16300 | 438 | 1660 |  |  |  |
| COc1c(Cl)cccc1Nc1c(-c2ccncc2OCC2(C)CCO2)[nH]c2c1C(=O)NCC2 (racemic) [Example 46, 3-(3-chloro-2-methoxyanilino)-2-{3-[(2-methyloxetan-2-yl)methoxy]pyridin-4-yl}-1,5,6,7-tetrahydro-4H-pyrrolo[3,2-c]pyridin-4-one] | 10200 |  | 966 |  | 67 |  |

Source: patent US20240307362A1 (priority 2019, published 2024)
